In this assay the test system is CEM cells HIV-1 protection, formazan growth assay. Kind of assay: NCI AIDS Antiviral Assay. The settings on record: for IC50: measured here: growth of uninfected CEM cells. The gist of the method: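 Category rules: moderately active means at least 50% protection on retest, and confirmed active means 100% protection reproducibly. The underlying data came from a formazan growth assay in HIV-1-infected CEM cells.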

Experimental findings from PubChem BioAssay AID179 (DTP/NCI, 2004) are described below.

Molecules are shown by their SMILES. The source made the active and inactive calls.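 How the source made its calls: active means compounds giving half or more protection of infected cells from virus-caused growth loss, again on retest; inactive means the rest.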

Consider `CCOC(=O)C(F)(F)C(=O)OCC`, for which the EC50 (usually the concentration needed to bring the measured effect to its halfway point) was greater than 200 µM and the IC50 (in general, the midpoint of a concentration-inhibition curve) was greater than 200 µM.

As to `CCC1CCC2c3c([nH]c4ccc(C)cc34)C3C(=O)N(N(C)C)C(=O)C3C2C1` (centres undefined), the EC50 is greater than 200 µM and the IC50 is greater than 100 µM.

With `Cc1cccc2c1NC(c1c(C)[nH]c3ccccc13)C2` (centres undefined), the outcome was inactive.

In the case of `CC1=C(C#N)C(=O)OC1(C)C(CC(=O)c1ccccc1)c1ccccc1` (centres undefined), the EC50 is greater than 200 µM and the IC50 stood at 8.32 µM.

As to `CC(=O)NNc1nc(C)c(C(=O)NNC(=O)C(=O)Nc2nc3ccc([N+](=O)[O-])cc3s2)s1`, the EC50 was greater than 141 µM and the IC50 is 33.1 µM.

As for `N#Cc1c(N2CCC(O)C2)c2ccccc2n2c1nc1ccccc12` (centres undefined), the EC50 is greater than 50.1 µM and the IC50 was greater than 50.1 µM.

Consider `CCOC(=O)c1cc2c3ccn(Cc4ccccc4)c3c3c(C)[nH]oc3c2n1`, for which the EC50 was 26.3 µM and the IC50 is greater than 200 µM.

As for `COc1ccc(OC)c(CCc2cc(OC)c(OC)cc2C)c1`, the EC50 was greater than 58.9 µM and the IC50 was found to be 2.82 µM.

Regarding `Nc1ncnc2c1ncn2C1CC(OCc2ccccc2[N+](=O)[O-])C(CO)O1` (centres undefined), the EC50 was greater than 50.1 µM and the IC50 came to 36.3 µM.

Take `CC(C)(C)SSCCN`: the EC50 was greater than 200 µM and the IC50 is greater than 200 µM.

As for `COc1ccc(/C=N/NC(=O)c2ccc(OCc3nc4ccccc4[nH]3)cc2)cc1`, the EC50 is 178 µM and the IC50 was greater than 200 µM.

As for `O=C1NC(=O)[C@@]2(CC[C@@H](O)C2)c2ccncc21`, the EC50 is greater than 562 µM and the IC50 is 447 µM.

As to `CC(=O)/C=C1/C(=O)C(CC(C)C)=C1CC(C)C`, the EC50 was 141 µM and the IC50 was greater than 200 µM.

With `C#CCN(C)Cc1ccccc1`, the EC50 is greater than 200 µM and the IC50 was greater than 200 µM.

Consider `Cn1c(=O)ccc2c1nc1ccccc1[n+]2[O-]`, for which the EC50 is greater than 60.3 µM and the half-maximal inhibitory concentration (IC50) was greater than 60.3 µM.

Regarding `O=C1C/C(Br)=C\c2ccccc2-c2ccccc21`, the EC50 was greater than 1.12 µM and the IC50 amounted to 0.389 µM.

In the case of `C/C(=C\C(=O)OCCCCCCCC(=O)NC1CCCNC1=O)C[C@@H]1OC[C@H](C/C=C/[C@@H](C)[C@H](C)O)[C@@H](O)[C@H]1O` (some centres undefined), the result was inactive.

Turning to `O=C1CCC(=O)N1CNc1cccc(NCN2C(=O)CCC2=O)c1`, the EC50 was greater than 39.8 µM and the IC50 was greater than 39.8 µM.

For `Cc1cc(C)c(NC(=O)c2ccccc2)c(=O)o1`, the EC50 was greater than 200 µM and the IC50 is greater than 200 µM.

Consider `COc1ccc(Oc2cc(CC3c4cc(OC)c(OC)cc4CCN3C)c([N+](=O)[O-])cc2OC)cc1OC` (centres undefined), for which the outcome was inactive.

As for `COc1ccc(Cn2nc(OCc3ccccn3)c3cc([N+](=O)[O-])ccc32)cc1`, the EC50 is greater than 200 µM and the IC50 is greater than 200 µM.

For `CSCCOC(=O)C(=[N+]=[N-])c1ccc([N+](=O)[O-])cc1`, the result was inactive.

In the case of `Cc1ccc(NC(=O)CC/C(CC(=O)C(C)(C)C)=N/NC(=O)c2cc3ccccc3cc2O)cc1C`, the EC50 is greater than 20.4 µM and the IC50 was greater than 20.4 µM.

For `O=c1[nH]nc(Nc2ccc(Cl)cc2)c2nnn(-c3ccc([N+](=O)[O-])cc3)c12`, the EC50 is greater than 200 µM and the IC50 is 67.6 µM.

Consider `CCCCCN(CCCCC)C(=O)COc1cc2c(O)c3c(O)c(C)c4c(c13)C(=O)C(C)(O/C=C/C(OC)C(C)C(OC(C)=O)C(C)C(O)C(C)C(O)C(C)/C=C/C=C(\C)C(=O)N2)O4` (centres undefined), for which the EC50 is greater than 200 µM and the IC50 is 7.76 µM.

Turning to `CCOC(=O)C(N)CSSCC(N)C(=O)OCC` (centres undefined), the EC50 is greater than 200 µM and the IC50 is greater than 200 µM.

Turning to `COc1cc(OC)c(/C=N/N=C(\N)NO)c(OC)c1`, the EC50 is greater than 200 µM and the IC50 was greater than 200 µM.

For the compound `COc1cccc(C2c3cc4c(cc3OC(NNC(N)=O)C2C)OCO4)c1O` (centres undefined), the EC50 was greater than 200 µM and the IC50 came to 1.12 µM.

As to `COc1ccc2c(c1)CCCN1Cc3ccccc3CC21` (centres undefined), the EC50 was greater than 200 µM and the IC50 is 141 µM.

`O=C(NN1C(=O)C=CC1=O)c1ccccc1Nc1ccccc1C(=O)NN1C(=O)C=CC1=O`: the EC50 was 63.1 µM and the IC50 is 191 µM.

`Cc1c(N2C(=O)/C(=C/c3ccc(N(CCC#N)CCC#N)cc3)N=C2c2ccccc2)c(=O)n(-c2ccccc2)n1C`: the EC50 is greater than 200 µM and the IC50 was 186 µM.

For `CCOC(=O)/C(Cl)=C(\C)Nc1nc2c(ccc3ccccc32)s1`, the EC50 is greater than 100 µM and the IC50 is 49 µM.

Consider `C[N+]12CCCCC1CC(=O)CC2` (centres undefined), for which the EC50 is greater than 851 µM and the IC50 is greater than 851 µM.

Turning to `Cn1c(=O)c2c(nc3sc4ccccc4c(=O)n32)n(C)c1=O`, the EC50 was greater than 151 µM and the IC50 was greater than 151 µM.

Regarding `CCC(C)(C(=O)O)C(=O)O`, the EC50 was greater than 200 µM and the IC50 is greater than 200 µM.

For the compound `COc1cc(/C=C2/Cc3ccccc3C2=O)ccc1O`, the EC50 was greater than 107 µM and the half-inhibitory concentration (IC50) was determined as 55 µM.

`Clc1nssc1=Nc1nonc1-c1ccccc1`: the EC50 is greater than 200 µM and the 50% inhibitory concentration (IC50) was 5.5 µM.

Turning to `Cc1cc(=O)oc2cc(N(C)C)ccc12`, the EC50 is greater than 67.6 µM and the IC50 came out at 37.2 µM.

Consider `C[C@@H]1c2ccc3c(c2C2(O)C[C@H]4CCC1N2C4)CC1[C@H]3C[C@@H](O)C2C[C@@H](O)CC[C@@]21C` (some centres undefined), for which the EC50 was greater than 30.9 µM and the concentration for half-maximal inhibition (IC50) was greater than 30.9 µM.

Consider `C1=Nc2ccccc2Cn2nncc21`, for which the EC50 was greater than 1350 µM and the IC50 turned out to be 21.9 µM.

For `C=C1C(O)O[C@@H]2O[C@@]3(C)CC[C@H]4[C@H](C)CCC1[C@@]24O3` (some centres undefined), the EC50 is greater than 200 µM and the IC50 was determined as 95.5 µM.

For the compound `Cc1cc(=O)oc2c1cc(OCC(=O)OCCN1CCCCC1)c1occ(C)c12`, the outcome was inactive.

On to `O=S(=O)(O)c1cc(O)c2c(N=Nc3ccc(Nc4ccccc4)c4c(S(=O)(=O)O)cccc34)cc(S(=O)(=O)O)cc2c1`, for which the EC50 is 112 µM and the IC50 is greater than 200 µM.

As to `CC(C)=CCC/C(C)=C/CC/C(C)=C/C(O)c1ccccc1` (centres undefined), the EC50 is greater than 50.1 µM and the IC50 was greater than 50.1 µM.

Turning to `NC(CSS(=O)(=O)c1ccccc1)C(=O)O` (centres undefined), the EC50 was greater than 200 µM and the IC50 is greater than 200 µM.

For `CC(C)/C(Cl)=N\OC(=O)Nc1ccc(S(N)(=O)=O)cc1`, the EC50 is greater than 200 µM and the IC50 was found to be 9.77 µM.

Turning to `NS(=O)(=O)c1ccc(NC(=S)/N=C/C2=C(O)c3ccccc3C2=O)cc1`, the EC50 is greater than 200 µM and the IC50 was found to be 52.5 µM.

With `Cc1ccc2c(c1CCCC(C)(C)O)C(=O)C(=O)C(C(C)C)=C2O`, the EC50 was greater than 380 µM and the IC50 worked out at 132 µM.

On to `O=S1(=O)CCCc2c1ccc1ccccc21`, for which the EC50 is greater than 200 µM and the IC50 was greater than 200 µM.

Regarding `O=C(C(=O)n1ncc(Cl)c(Cl)c1=O)n1ncc(Cl)c(Cl)c1=O`, the EC50 is greater than 93.3 µM and the IC50 came to 50.1 µM.

In the case of `COC(=O)C12C3C4C1C1C2C3C41C(=O)O` (centres undefined), the EC50 was greater than 1200 µM and the IC50 is greater than 1200 µM.

Consider `COc1ccc2c3c([nH]c2c1[N+](=O)[O-])C(C)N(C(=O)/C=C/c1ccccc1)CC3` (centres undefined), for which the result was inactive.

As to `Clc1cc(Cl)c2nncc(N3CC3)c2c1`, the outcome was inactive.
